Earlier results, collected in US20100048679A1, “POLYNUCLEOTIDE THERAPY” (Bayhill Therapeutics, Inc., priority 2006, published 2010).
Like-named read-outs stand apart in the source and are kept apart here.

System: patients

Compound	Significant side effects (in vivo)	Significant side effects (MS patients, literature)
glatiramer acetate	allergic reactions	
O=C1c2c(O)ccc(O)c2C(=O)c2c(NCCNCCO)ccc(NCCNCCO)c21 [mitoxantrone]		myelosuppression with increased risk for infections
natalizumab [Tysabri]		decreases lymphocyte trafficking
interferon β		flu-like symptoms
